Laboratory results as given in US10730863B2, “Bridged bicyclic compounds as farnesoid X receptor modulators” (BRISTOL-MYERS SQUIBB COMPANY, priority 2017, dated 2020).

Each compound was assayed against FXR (Homo sapiens (Human), UniProt Q96RI1) (assay: FXR EC50 (FXR agonist activity reported with each example)).
Assay type: cell-based

Chain of FXR (Q96RI1 262-486): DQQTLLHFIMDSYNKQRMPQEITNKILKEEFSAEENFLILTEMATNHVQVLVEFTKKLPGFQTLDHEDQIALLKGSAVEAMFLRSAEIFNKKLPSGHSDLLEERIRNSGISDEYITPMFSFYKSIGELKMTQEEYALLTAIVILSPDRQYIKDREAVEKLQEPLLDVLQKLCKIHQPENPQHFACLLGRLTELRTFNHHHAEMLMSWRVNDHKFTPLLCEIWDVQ

SMILES	EC50 [nM]
O=C(O)c1cc(C#CC23CCC(OCc4c(-c5c(Cl)cncc5Cl)noc4C4CC4)(CC2)CC3)cc2[nH]ccc12 [Example 415]	63
O=C(O)c1cc(C#CC23CCC(OCc4c(-c5c(Cl)cncc5Cl)noc4C4CC4)(CC2)CC3)c2cc[nH]c2c1 [Example 416]	40
Cc1nc(C#CC23CCC(OCc4c(-c5c(Cl)cncc5Cl)noc4C4CC4)(CC2)CC3)ccc1C(=O)O [Example 417]	300
CC(C)(O)COc1ccc(C(=O)O)c2ccc(C34CCC(OCc5c(-c6c(Cl)cncc6Cl)noc5C5CC5)(CC3)CC4)nc12 [Example 418, 2-(4-((5-cyclopropyl-3-(3,5-dichloropyridin-4-yl)isoxazol-4-yl)methoxy)bicyclo[2.2.2]octan-1-yl)-8-(2-hydroxy-2-methylpropoxy)quinoline-5-carboxylic acid]	120
O=C(O)c1ccc(C#CC23CCC(OCc4c(-c5c(Cl)cncc5Cl)noc4C4CC4)(CC2)CC3)nn1 [Example 419]	2000
O=C(O)c1cc(C(F)(F)F)cc2nc(C34CCC(OCc5c(-c6c(Cl)cncc6Cl)noc5C5CC5)(CC3)CC4)ccc12 [Example 420]	3
O=C(O)c1ccc2nc(C34CCC(OCc5c(-c6c(Cl)cncc6Cl)noc5C5CC5)(CC3)CC4)ccc2n1 [Example 421]	53
O=C(O)c1cc(C(F)(F)F)c2ccc(C34CCC(OCc5c(-c6c(Cl)cncc6Cl)noc5C5CC5)(CC3)CC4)nc2c1 [Example 422]	360
O=C(O)c1cc(C(F)(F)F)cc2nc(C34CCC(OCc5c(C(C6CC6)C6CC6)noc5C5CC5)(CC3)CC4)ccc12 [Example 423, 2-(4-((5-cyclopropyl-3-(dicyclopropylmethyl)isoxazol-4-yl)methoxy)bicyclo[2.2.2]octan-1-yl)-7-(trifluoromethyl)quinoline-5-carboxylic acid]	67
O=C(O)c1ccc(C2CC2)c2nc(C34CCC(OCc5c(C(C6CC6)C6CC6)noc5C5CC5)(CC3)CC4)ccc12 [Example 424]	500
CC1(c2noc(C3CC3)c2COC23CCC(c4ccc5c(C(=O)O)cccc5n4)(CC2)CC3)CC1(F)F (centres unmarked) [Example 425, 2-(4-((5-cyclopropyl-3-(2,2-difluoro-1-methylcyclopropyl)isoxazol-4-yl)methoxy)bicyclo[2.2.2]octan-1-yl)quinoline-5-carboxylic acid]	3400
COc1cc(Cl)c2nc(C34CCC(OCc5c(-c6c(Cl)cncc6Cl)noc5C5CC5)(CC3)CC4)ccc2c1C(=O)O [Example 426, 8-chloro-2-(4-((5-cyclopropyl-3-(3,5-dichloropyridin-4-yl)isoxazol-4-yl)methoxy)bicyclo[2.2.2]octan-1-yl)-6-methoxyquinoline-5-carboxy c acid]	12
CC(C)Oc1cc(Cl)c2nc(C34CCC(OCc5c(-c6c(Cl)cncc6Cl)noc5C5CC5)(CC3)CC4)ccc2c1C(=O)O [Example 427]	5
COc1ccc2nc(C34CCC(OCc5c(-c6c(Cl)cncc6Cl)noc5C5CC5)(CC3)CC4)ccc2c1C(=O)O [Example 428]	120
O=C(O)c1c(OC2CCC2)cc(Cl)c2nc(C34CCC(OCc5c(-c6c(Cl)cncc6Cl)noc5C5CC5)(CC3)CC4)ccc12 [Example 429]	4
O=C(O)c1cc(C(F)(F)F)c2cc(CCC34CCC(OCc5c(-c6c(Cl)cncc6Cl)noc5C5CC5)(CC3)CC4)ccc2n1 [Example 430, 6-(2-(4-((5-cyclopropyl-3-(3,5-dichloropyridin-4-yl)isoxazol-4-yl)methoxy)bicyclo[2.2.2]octan-1-yl)ethyl)-4-(trifluoromethyl)quinoline-2-carboxylic acid]	24

SMILES	EC50 [nM]
O=C(O)c1cccc2nc(C34CCC(OCc5c(-c6c(Cl)cncc6Cl)noc5C5CC5)(CC3)CC4)sc12 [Example 432, 2-(4-((5-cyclopropyl-3-(3,5-dichloropyridin-4-yl)isoxazol-4-yl)methoxy)bicyclo[2.2.2]octan-1-yl)benzo[d]thiazole-7-carboxylic acid]	23
O=C(O)c1cc(NC(=O)C23CCC(OCc4c(-c5c(Cl)cncc5Cl)noc4C4CC4)(CC2)CC3)cc(C(F)(F)F)c1 [Example 433, 3-(4-((5-cyclopropyl-3-(3,5-dichloropyridin-4-yl)isoxazol-4-yl)methoxy)bicyclo[2.2.2]octane-1-carboxamido)-5-(trifluoromethyl)benzoic acid]	1300
O=C(O)c1cc(C(F)(F)F)cc2nc(C34CCC(OCc5c(-c6c(Cl)cncc6Cl)noc5C5CC5)(CC3)CC4)sc12 [Example 434, 2-(4-((5-cyclopropyl-3-(3,5-dichloropyridin-4-yl)isoxazol-4-yl)methoxy)bicyclo[2.2.2]octan-1-yl)-5-(trifluoromethyl)benzo[d]thiazole-7-carboxylic acid]	18
NC(=O)c1cc(C(F)(F)F)cc2nc(C34CCC(OCc5c(-c6c(Cl)cncc6Cl)noc5C5CC5)(CC3)CC4)sc12 [Example 435, 2-(4-((5-cyclopropyl-3-(3,5-dichloropyridin-4-yl)isoxazol-4-yl)methoxy)bicyclo[2.2.2]octan-1-yl)-5-(trifluoromethyl)benzo[d]thiazole-7-carboxamide]	460
O=C(O)c1cc(-c2noc(C34CCC(/C=C/c5c(-c6c(Cl)cncc6Cl)noc5C5CC5)(CC3)CC4)n2)cc(C(F)(F)F)c1 [Example 436, (E)-3-(5-(4-(2-(5-cyclopropyl-3-(3,5-dichloropyridin-4-yl)isoxazol-4-yl)vinyl)bicyclo[2.2.2]octan-1-yl)-1,2,4-oxadiazol-3-yl)-5-(trifluoromethyl)benzoic acid]	18
COc1ccc(-c2noc(C34CCC(/C=C/c5c(-c6c(Cl)cncc6Cl)noc5C5CC5)(CC3)CC4)n2)cc1C(=O)O [Example 437, (E)-5-(5-(4-(2-(5-cyclopropyl-3-(3,5-dichloropyridin-4-yl)isoxazol-4-yl)vinyl)bicyclo[2.2.2]octan-1-yl)-1,2,4-oxadiazol-3-yl)-2-methoxybenzoic acid]	23
COc1ccc(-c2noc(C34CCC(/C=C/c5c(-c6c(Cl)cncc6Cl)noc5C5CC5)(CC3)CC4)n2)cc1C(=O)NS(C)(=O)=O [Example 438, (E)-5-(5-(4-(2-(5-cyclopropyl-3-(3,5-dichloropyridin-4-yl)isoxazol-4-yl)vinyl)bicyclo[2.2.2]octan-1-yl)-1,2,4-oxadiazol-3-yl)-2-methoxy-N-(methylsulfonyl)benzamide]	33
COc1ccc(-c2noc(C34CCC(/C=C/c5c(-c6c(Cl)cncc6Cl)noc5C5CC5)(CC3)CC4)n2)cc1C(=O)NS(=O)(=O)C1CC1 [Example 439, (E)-5-(5-(4-(2-(5-cyclopropyl-3-(3,5-dichloropyridin-4-yl)isoxazol-4-yl)vinyl)bicyclo[2.2.2]octan-1-yl)-1,2,4-oxadiazol-3-yl)-N-(cyclopropylsulfonyl)-2-methoxybenzamide]	280
CS(=O)(=O)NC(=O)c1cc(-c2noc(C34CCC(/C=C/c5c(-c6c(Cl)cncc6Cl)noc5C5CC5)(CC3)CC4)n2)cc(C(F)(F)F)c1 [Example 440, (E)-3-(5-(4-(2-(5-cyclopropyl-3-(3,5-dichloropyridin-4-yl)isoxazol-4-yl)vinyl)bicyclo[2.2.2]octan-1-yl)-1,2,4-oxadiazol-3-yl)-N-(methylsulfonyl)-5-(trifluoromethyl)benzamide]	400
NC(=O)c1cc(-c2noc(C34CCC(/C=C/c5c(-c6c(Cl)cncc6Cl)noc5C5CC5)(CC3)CC4)n2)cc(C(F)(F)F)c1 [Example 441, (E)-3-(5-(4-(2-(5-cyclopropyl-3-(3,5-dichloropyridin-4-yl)isoxazol-4-yl)vinyl)bicyclo[2.2.2]octan-1-yl)-1,2,4-oxadiazol-3-yl)-5-(trifluoromethyl)benzamide]	150
O=C(O)c1cc(F)cc(-c2noc(C34CCC(/C=C/c5c(-c6c(Cl)cncc6Cl)noc5C5CC5)(CC3)CC4)n2)c1 [Example 442, (E)-3-(5-(4-(2-(5-cyclopropyl-3-(3,5-dichloropyridin-4-yl)isoxazol-4-yl)vinyl)bicyclo[2.2.2]octan-1-yl)-1,2,4-oxadiazol-3-yl)-5-fluorobenzoic acid]	79
COC(=O)c1cc(OC(F)F)cc(-c2noc(C34CCC(/C=C/c5c(-c6c(Cl)cncc6Cl)noc5C5CC5)(CC3)CC4)n2)c1 [Example 443, (E)-methyl 3-(5-(4-(2-(5-cyclopropyl-3-(3,5-dichloropyridin-4-yl)isoxazol-4-yl)vinyl)bicyclo[2.2.2]octan-1-yl)-1,2,4-oxadiazol-3-yl)-5-(difluoromethoxy)benzoate]	49
O=C(O)c1cc(OCC23CCC(/C=C/c4c(-c5c(Cl)cncc5Cl)noc4C4CC4)(CC2)CC3)cc(OC(F)F)c1 [Example 444, (E)-3-((4-(2-(5-cyclopropyl-3-(3,5-dichloropyridin-4-yl)isoxazol-4-yl)vinyl)bicyclo[2.2.2]octan-1-yl)methoxy)-5-(difluoromethoxy)benzoic acid]	16
O=C(O)c1cc(-c2noc(C34CCC(/C=C/c5c(-c6c(Cl)cncc6Cl)noc5C5CC5)(CC3)CC4)n2)ccc1OC(F)F [Example 446, (E)-5-(5-(4-(2-(5-cyclopropyl-3-(3,5-dichloropyridin-4-yl)isoxazol-4-yl)vinyl)bicyclo[2.2.2]octan-1-yl)-1,2,4-oxadiazol-3-yl)-2-(difluoromethoxy)benzoic acid]	350
Cc1cc(OCC23CCC(/C=C/c4c(-c5c(Cl)cncc5Cl)noc4C4CC4)(CC2)CC3)c2cc(C(=O)O)cc(F)c2n1 [Example 447, (E)-4-((4-(2-(5-cyclopropyl-3-(3,5-dichloropyridin-4-yl)isoxazol-4-yl)vinyl)bicyclo[2.2.2]octan-1-yl)methoxy)-8-fluoro-2-methylquinoline-6-carboxylic acid]	2400
COc1c(C(=O)O)cccc1-c1noc(C23CCC(/C=C/c4c(-c5c(Cl)cncc5Cl)noc4C4CC4)(CC2)CC3)n1 [Example 448, (E)-3-(5-(4-(2-(5-cyclopropyl-3-(3,5-dichloropyridin-4-yl)isoxazol-4-yl)vinyl)bicyclo[2.2.2]octan-1-yl)-1,2,4-oxadiazol-3-yl)-2-methoxybenzoic acid]	10
